Assay results as given in paper PMC9569420 (Communications Biology, 2022).
Values joined by “and” are separate entries in the source; they are usually repeats but may differ in a detail not shown here. Identical values can stand only once.

What was measured:
[1] = biological target: T1, TNK1 (Homo sapiens, UniProt Q13470); assay: HotSpot kinase assay; assay type: biochemical; conditions: read-out: % Enzyme Activity (relative to DMSO controls)
T1 construct: purchased Reaction Biology Corporation
T1 sequence (Q13470 whole entry): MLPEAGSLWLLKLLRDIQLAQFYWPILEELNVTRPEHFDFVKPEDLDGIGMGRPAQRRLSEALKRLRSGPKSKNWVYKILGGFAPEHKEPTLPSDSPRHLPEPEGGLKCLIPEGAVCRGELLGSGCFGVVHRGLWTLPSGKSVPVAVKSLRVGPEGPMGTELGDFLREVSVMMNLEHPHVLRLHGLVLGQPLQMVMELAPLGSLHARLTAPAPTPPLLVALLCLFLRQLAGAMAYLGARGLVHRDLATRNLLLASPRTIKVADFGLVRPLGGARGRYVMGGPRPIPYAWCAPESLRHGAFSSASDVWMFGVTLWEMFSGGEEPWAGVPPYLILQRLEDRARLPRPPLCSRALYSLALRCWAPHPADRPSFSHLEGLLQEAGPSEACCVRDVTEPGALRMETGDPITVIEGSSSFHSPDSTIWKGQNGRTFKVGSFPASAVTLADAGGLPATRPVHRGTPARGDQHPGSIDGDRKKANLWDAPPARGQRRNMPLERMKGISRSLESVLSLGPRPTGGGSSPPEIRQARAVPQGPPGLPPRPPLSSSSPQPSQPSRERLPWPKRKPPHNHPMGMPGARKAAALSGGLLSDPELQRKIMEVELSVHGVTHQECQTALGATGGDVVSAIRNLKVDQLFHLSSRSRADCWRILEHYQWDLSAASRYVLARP

[2] = biological target: T2, PAK6 (Homo sapiens, UniProt Q9NQU5); assay: HotSpot kinase assay; assay type: biochemical; conditions: read-out: % Enzyme Activity (relative to DMSO controls)
T2 construct: purchased Reaction Biology Corporation

[3] = biological target: T3, PIM2 (Homo sapiens, UniProt Q9P1W9); assay: HotSpot kinase assay; assay type: biochemical; conditions: read-out: % Enzyme Activity (relative to DMSO controls)
T3 construct: purchased Reaction Biology Corporation
T3 sequence (Q9P1W9 whole entry): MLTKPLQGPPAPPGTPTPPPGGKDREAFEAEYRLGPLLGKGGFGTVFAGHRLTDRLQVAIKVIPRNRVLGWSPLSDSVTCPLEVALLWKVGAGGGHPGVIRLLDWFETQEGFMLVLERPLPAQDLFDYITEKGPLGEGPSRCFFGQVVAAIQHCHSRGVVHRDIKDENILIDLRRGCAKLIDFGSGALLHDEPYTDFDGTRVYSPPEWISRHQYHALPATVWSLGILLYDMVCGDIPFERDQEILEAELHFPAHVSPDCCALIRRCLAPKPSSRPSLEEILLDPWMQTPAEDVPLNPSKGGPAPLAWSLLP

[4] = biological target: T4, KSR2 (Homo sapiens, UniProt Q6VAB6); assay: biochemical; conditions: read-out: % Enzyme Activity (relative to DMSO controls)
T4 construct: purchased Reaction Biology Corporation

[5] = test system: intracellular Ca2+ response to HSV-2(G); assay: calcium kinetic measurements (Fura-2), HaCat cells; assay type: cell-based, human; conditions: for mean calcium released: CIMSS without virus (Fig 4b source data)
Experimental: The cells were then transferred to SpectraMaxMF^e temperature-regulated chamber at 37 °C (Molecular Devices Ca) without washing; photometric data for intracellular Ca^2+ concentration [Ca^2+] were generated by exciting cells at 340 and 380 nm and measuring emission at 510 nm every minute for one hour using SoftMaxPro. 5.4 software (Molecular Devices). An intracellular calibration was performed with each experiment by determining the fluorescence ratio (340:380) in the presence of Ca-free 10 mM K2EGTA buffer (Rmin) and 10 mM CaEGTA buffer containing 10 µM ionomycin (Rmax) (C-3008, Calcium Calibration Buffer Kit #1, Invitrogen Molecular Probes).

[6] = biological target: T5, PRKX (Homo sapiens, UniProt P51817); assay: HotSpot kinase assay; assay type: biochemical; conditions: read-out: % Enzyme Activity (relative to DMSO controls)
T5 construct: purchased Reaction Biology Corporation

[7] = biological target: T6, CDK3/cyclin E2 (Homo sapiens, UniProt Q00526); assay: HotSpot kinase assay; assay type: biochemical; conditions: read-out: % Enzyme Activity (relative to DMSO controls)
T6 construct: purchased Reaction Biology Corporation

[8] = biological target: T7, PKCd (Homo sapiens, UniProt Q05655); assay: biochemical
T7 construct: purchased Reaction Biology Corporation
T7 sequence (Q05655 whole entry): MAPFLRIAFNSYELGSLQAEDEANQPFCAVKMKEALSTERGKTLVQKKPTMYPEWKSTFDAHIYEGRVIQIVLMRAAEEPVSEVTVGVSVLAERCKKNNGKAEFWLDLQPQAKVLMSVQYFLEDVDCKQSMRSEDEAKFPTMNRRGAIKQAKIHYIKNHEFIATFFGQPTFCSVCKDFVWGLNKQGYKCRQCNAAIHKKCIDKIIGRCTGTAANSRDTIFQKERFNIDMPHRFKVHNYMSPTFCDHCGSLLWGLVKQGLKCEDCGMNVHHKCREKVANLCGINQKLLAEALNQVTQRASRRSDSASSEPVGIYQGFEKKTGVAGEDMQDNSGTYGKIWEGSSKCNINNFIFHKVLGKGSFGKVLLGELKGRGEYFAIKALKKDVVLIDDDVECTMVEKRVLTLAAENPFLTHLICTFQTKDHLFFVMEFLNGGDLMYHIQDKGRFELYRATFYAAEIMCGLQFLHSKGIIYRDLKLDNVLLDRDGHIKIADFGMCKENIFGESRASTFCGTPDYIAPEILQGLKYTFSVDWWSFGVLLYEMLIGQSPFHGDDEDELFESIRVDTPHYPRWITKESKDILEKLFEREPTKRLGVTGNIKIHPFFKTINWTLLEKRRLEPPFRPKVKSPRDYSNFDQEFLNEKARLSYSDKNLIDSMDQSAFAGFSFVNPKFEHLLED

[9] = biological target: T8, PKD2/PRKD2 (Homo sapiens, UniProt Q9BZL6); assay: HotSpot kinase assay; assay type: biochemical; conditions: read-out: % Enzyme Activity (relative to DMSO controls)
T8 construct: purchased Reaction Biology Corporation

[10] = biological target: T9, TIE2/TEK (Homo sapiens, UniProt Q02763); assay: HotSpot kinase assay; assay type: biochemical; conditions: read-out: % Enzyme Activity (relative to DMSO controls)
T9 construct: purchased Reaction Biology Corporation

[11] = biological target: T10, BMPR2 (Homo sapiens, UniProt Q13873); assay: HotSpot kinase assay; assay type: biochemical; conditions: read-out: % Enzyme Activity (relative to DMSO controls)
T10 construct: purchased Reaction Biology Corporation

[12] = biological target: T11, STK32C/YANK3 (Homo sapiens, UniProt Q86UX6); assay: HotSpot kinase assay; assay type: biochemical; conditions: read-out: % Enzyme Activity (relative to DMSO controls)
T11 construct: purchased Reaction Biology Corporation

[13] = biological target: T12, MAPKAPK5/PRAK (Homo sapiens, UniProt Q8IW41); assay: HotSpot kinase assay; assay type: biochemical; conditions: read-out: % Enzyme Activity (relative to DMSO controls)
T12 construct: purchased Reaction Biology Corporation

[14] = biological target: T13, FAK/PTK2 (Homo sapiens, UniProt Q05397); assay: HotSpot kinase assay; assay type: biochemical; conditions: read-out: % Enzyme Activity (relative to DMSO controls)
T13 construct: purchased Reaction Biology Corporation

[15] = biological target: T14, MARK2/PAR-1Ba (Homo sapiens, UniProt Q7KZI7); assay: HotSpot kinase assay; assay type: biochemical; conditions: read-out: % Enzyme Activity (relative to DMSO controls)
T14 construct: purchased Reaction Biology Corporation

[16] = biological target: T15, HIPK4 (Homo sapiens, UniProt Q8NE63); assay: HotSpot kinase assay; assay type: biochemical; conditions: read-out: % Enzyme Activity (relative to DMSO controls)
T15 construct: purchased Reaction Biology Corporation

[17] = biological target: T16, CK1d (Homo sapiens, UniProt P48730); assay: HotSpot kinase assay; assay type: biochemical; conditions: read-out: % Enzyme Activity (relative to DMSO controls)
T16 construct: purchased Reaction Biology Corporation

[18] = biological target: T17, STK25/YSK1 (Homo sapiens, UniProt O00506); assay: HotSpot kinase assay; assay type: biochemical; conditions: read-out: % Enzyme Activity (relative to DMSO controls)
T17 construct: purchased Reaction Biology Corporation

[19] = biological target: T18, GRK3 (Homo sapiens, UniProt P35626); assay: HotSpot kinase assay; assay type: biochemical; conditions: read-out: % Enzyme Activity (relative to DMSO controls)
T18 construct: purchased Reaction Biology Corporation

[20] = biological target: T19, CDK3/cyclin E (Homo sapiens, UniProt Q00526); assay: HotSpot kinase assay; assay type: biochemical; conditions: read-out: % Enzyme Activity (relative to DMSO controls)
T19 construct: purchased Reaction Biology Corporation

[21] = test system: VSV-S; assay type: cell-based, VSV pseudotyped with SARS-CoV-2 spike
[22] = biological target: T20, PHKg2 (Homo sapiens, UniProt P15735); assay: HotSpot kinase assay; assay type: biochemical; conditions: read-out: % Enzyme Activity (relative to DMSO controls)
T20 construct: purchased Reaction Biology Corporation

[23] = biological target: T21, c-MET (Homo sapiens, UniProt P08581); assay: biochemical; conditions: read-out: % Enzyme Activity (relative to DMSO controls)
T21 construct: purchased Reaction Biology Corporation
T21 sequence (P08581 25-1390): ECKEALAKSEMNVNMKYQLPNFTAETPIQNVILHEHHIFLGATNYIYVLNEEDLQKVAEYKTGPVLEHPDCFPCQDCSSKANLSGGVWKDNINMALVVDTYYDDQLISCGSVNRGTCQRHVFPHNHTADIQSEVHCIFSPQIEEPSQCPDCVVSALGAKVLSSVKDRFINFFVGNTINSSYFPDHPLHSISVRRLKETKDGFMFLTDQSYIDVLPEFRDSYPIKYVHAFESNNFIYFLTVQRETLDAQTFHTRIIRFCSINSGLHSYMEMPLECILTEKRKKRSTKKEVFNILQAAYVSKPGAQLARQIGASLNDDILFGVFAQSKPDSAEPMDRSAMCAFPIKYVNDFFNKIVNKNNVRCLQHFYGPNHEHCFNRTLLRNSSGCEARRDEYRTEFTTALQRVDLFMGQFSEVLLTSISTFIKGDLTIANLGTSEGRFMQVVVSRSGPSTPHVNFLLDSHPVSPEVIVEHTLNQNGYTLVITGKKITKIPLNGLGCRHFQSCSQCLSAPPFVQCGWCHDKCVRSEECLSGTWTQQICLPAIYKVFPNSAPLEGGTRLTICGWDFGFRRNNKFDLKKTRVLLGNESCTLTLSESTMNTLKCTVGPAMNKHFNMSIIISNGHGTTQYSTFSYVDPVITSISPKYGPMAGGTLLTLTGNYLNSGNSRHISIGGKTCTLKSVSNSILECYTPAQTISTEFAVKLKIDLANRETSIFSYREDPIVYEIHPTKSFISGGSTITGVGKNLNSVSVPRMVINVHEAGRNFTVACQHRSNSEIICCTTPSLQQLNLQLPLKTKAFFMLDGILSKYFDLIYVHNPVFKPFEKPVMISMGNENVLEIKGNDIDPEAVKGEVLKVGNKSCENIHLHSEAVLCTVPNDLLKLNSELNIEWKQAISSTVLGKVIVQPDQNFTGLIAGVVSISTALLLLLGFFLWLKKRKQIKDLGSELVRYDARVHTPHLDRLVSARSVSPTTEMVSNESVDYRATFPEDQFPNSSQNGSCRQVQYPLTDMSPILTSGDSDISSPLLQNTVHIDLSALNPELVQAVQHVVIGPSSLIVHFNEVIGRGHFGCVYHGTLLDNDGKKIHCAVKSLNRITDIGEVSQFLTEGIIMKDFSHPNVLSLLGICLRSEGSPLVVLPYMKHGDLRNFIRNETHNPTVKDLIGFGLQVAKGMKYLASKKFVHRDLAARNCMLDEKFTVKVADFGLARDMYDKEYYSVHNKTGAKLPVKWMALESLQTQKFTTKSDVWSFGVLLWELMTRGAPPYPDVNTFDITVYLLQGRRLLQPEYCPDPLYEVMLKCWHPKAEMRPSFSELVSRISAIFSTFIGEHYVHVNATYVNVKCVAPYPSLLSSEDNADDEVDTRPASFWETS

[24] = biological target: T22, BRSK2 (Homo sapiens, UniProt Q8IWQ3); assay: HotSpot kinase assay; assay type: biochemical; conditions: read-out: % Enzyme Activity (relative to DMSO controls)
T22 construct: purchased Reaction Biology Corporation

[25] = biological target: T23, LKB1 (Homo sapiens, UniProt Q15831); assay: HotSpot kinase assay; assay type: biochemical; conditions: read-out: % Enzyme Activity (relative to DMSO controls)
T23 construct: purchased Reaction Biology Corporation
T23 sequence (Q15831 whole entry): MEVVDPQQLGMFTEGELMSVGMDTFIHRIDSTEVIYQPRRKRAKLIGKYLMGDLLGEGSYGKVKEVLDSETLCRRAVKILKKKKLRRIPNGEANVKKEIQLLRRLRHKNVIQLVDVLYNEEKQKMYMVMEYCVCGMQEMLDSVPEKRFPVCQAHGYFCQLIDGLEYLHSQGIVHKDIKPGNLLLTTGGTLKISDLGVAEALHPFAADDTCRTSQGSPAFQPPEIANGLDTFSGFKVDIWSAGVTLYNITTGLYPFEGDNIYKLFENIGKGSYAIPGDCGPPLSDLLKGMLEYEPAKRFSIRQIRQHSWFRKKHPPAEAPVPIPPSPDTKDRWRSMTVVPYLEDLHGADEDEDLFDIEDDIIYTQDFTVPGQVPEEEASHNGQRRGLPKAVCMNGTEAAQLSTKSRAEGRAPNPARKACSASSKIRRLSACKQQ
T23 sequence (Q7RTN6 whole entry partner): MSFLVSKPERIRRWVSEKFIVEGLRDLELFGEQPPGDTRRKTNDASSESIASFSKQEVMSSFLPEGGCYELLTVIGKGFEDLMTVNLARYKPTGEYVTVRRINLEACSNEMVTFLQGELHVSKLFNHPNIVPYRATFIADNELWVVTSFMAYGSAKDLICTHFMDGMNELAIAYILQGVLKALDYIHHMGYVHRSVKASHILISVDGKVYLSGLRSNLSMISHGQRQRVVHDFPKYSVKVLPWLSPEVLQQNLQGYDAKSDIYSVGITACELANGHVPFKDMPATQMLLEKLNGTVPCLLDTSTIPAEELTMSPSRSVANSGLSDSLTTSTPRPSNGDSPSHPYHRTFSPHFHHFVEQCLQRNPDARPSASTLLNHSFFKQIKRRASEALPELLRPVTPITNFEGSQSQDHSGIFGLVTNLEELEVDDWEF
T23 sequence (Q9Y376 whole entry partner): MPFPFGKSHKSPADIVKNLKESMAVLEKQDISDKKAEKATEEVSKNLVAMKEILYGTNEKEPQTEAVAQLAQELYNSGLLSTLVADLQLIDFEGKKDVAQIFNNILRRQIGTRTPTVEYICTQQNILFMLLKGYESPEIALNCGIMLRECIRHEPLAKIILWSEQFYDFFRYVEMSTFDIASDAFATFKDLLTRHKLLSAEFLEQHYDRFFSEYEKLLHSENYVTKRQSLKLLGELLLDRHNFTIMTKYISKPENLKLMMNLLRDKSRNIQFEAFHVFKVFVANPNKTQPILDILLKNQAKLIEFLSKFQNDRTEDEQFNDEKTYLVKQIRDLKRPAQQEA

[26] = biological target: T24, ZIPK/DAPK3 (Homo sapiens, UniProt O43293); assay: HotSpot kinase assay; assay type: biochemical; conditions: read-out: % Enzyme Activity (relative to DMSO controls)
T24 construct: purchased Reaction Biology Corporation

[27] = biological target: T25, CAMK1a (Homo sapiens, UniProt Q14012); assay: HotSpot kinase assay; assay type: biochemical; conditions: read-out: % Enzyme Activity (relative to DMSO controls)
T25 construct: purchased Reaction Biology Corporation

[28] = biological target: T26, GRK4 (Homo sapiens, UniProt P32298); assay: HotSpot kinase assay; assay type: biochemical; conditions: read-out: % Enzyme Activity (relative to DMSO controls)
T26 construct: purchased Reaction Biology Corporation

[29] = biological target: T27, STK16 (Homo sapiens, UniProt O75716); assay: HotSpot kinase assay; assay type: biochemical; conditions: read-out: % Enzyme Activity (relative to DMSO controls)
T27 construct: purchased Reaction Biology Corporation

[30] = biological target: T28, SGK2 (Homo sapiens, UniProt Q9HBY8); assay: HotSpot kinase assay; assay type: biochemical; conditions: read-out: % Enzyme Activity (relative to DMSO controls)
T28 construct: purchased Reaction Biology Corporation

[31] = biological target: T29, DNA-PK (Homo sapiens, UniProt P78527); assay: HotSpot kinase assay; assay type: biochemical; conditions: read-out: % Enzyme Activity (relative to DMSO controls)
T29 construct: purchased Reaction Biology Corporation

[32] = biological target: T30, CDK19/cyclin C (Homo sapiens, UniProt Q9BWU1); assay: HotSpot kinase assay; assay type: biochemical; conditions: read-out: % Enzyme Activity (relative to DMSO controls)
T30 construct: purchased Reaction Biology Corporation
T30 sequence (Q9BWU1 whole entry): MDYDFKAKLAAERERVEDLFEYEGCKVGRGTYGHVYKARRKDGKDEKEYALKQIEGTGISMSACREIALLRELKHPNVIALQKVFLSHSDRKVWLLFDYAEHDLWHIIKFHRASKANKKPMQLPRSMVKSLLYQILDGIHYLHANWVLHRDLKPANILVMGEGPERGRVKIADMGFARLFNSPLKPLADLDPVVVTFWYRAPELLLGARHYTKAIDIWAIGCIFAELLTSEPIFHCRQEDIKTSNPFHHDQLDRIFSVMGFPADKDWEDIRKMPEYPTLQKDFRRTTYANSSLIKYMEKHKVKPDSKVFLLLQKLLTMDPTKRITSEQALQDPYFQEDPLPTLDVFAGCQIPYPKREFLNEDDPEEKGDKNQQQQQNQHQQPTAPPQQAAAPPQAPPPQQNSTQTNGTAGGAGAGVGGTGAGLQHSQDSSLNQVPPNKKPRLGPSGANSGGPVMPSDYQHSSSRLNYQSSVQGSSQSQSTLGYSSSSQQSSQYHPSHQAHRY
T30 sequence (P24863 whole entry partner): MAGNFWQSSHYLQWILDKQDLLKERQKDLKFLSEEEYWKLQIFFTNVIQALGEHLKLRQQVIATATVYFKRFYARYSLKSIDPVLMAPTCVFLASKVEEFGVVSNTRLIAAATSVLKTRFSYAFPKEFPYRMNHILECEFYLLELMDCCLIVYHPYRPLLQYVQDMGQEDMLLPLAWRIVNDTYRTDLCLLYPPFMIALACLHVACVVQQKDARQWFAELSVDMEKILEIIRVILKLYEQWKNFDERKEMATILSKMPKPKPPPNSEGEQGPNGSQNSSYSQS

[33] = biological target: T31, STK39/STLK3 (Homo sapiens, UniProt Q9UEW8); assay: HotSpot kinase assay; assay type: biochemical; conditions: read-out: % Enzyme Activity (relative to DMSO controls)
T31 construct: purchased Reaction Biology Corporation

[34] = biological target: T32, ULK3 (Homo sapiens, UniProt Q6PHR2); assay: HotSpot kinase assay; assay type: biochemical; conditions: read-out: % Enzyme Activity (relative to DMSO controls)
T32 construct: purchased Reaction Biology Corporation

[35] = biological target: T33, RIPK4 (Homo sapiens, UniProt P57078); assay: HotSpot kinase assay; assay type: biochemical; conditions: read-out: % Enzyme Activity (relative to DMSO controls)
T33 construct: purchased Reaction Biology Corporation

[36] = biological target: T34, STK21/CIT (Homo sapiens, UniProt O14578); assay: HotSpot kinase assay; assay type: biochemical; conditions: read-out: % Enzyme Activity (relative to DMSO controls)
T34 construct: purchased Reaction Biology Corporation

[37] = biological target: T35, MST3/STK24 (Homo sapiens, UniProt Q9Y6E0); assay: HotSpot kinase assay; assay type: biochemical; conditions: read-out: % Enzyme Activity (relative to DMSO controls)
T35 construct: purchased Reaction Biology Corporation

[38] = biological target: T36, FGFR3 (Homo sapiens, UniProt P22607); assay: HotSpot kinase assay; assay type: biochemical; conditions: read-out: % Enzyme Activity (relative to DMSO controls)
T36 construct: purchased Reaction Biology Corporation

Work on `CO[C@@H]1[C@H](N(C)C(=O)CCC(=O)NCc2cn(CCCS(=O)(=O)O)nn2)C[C@H]2O[C@]1(C)n1c3ccccc3c3c4c(c5c6ccccc6n2c5c31)C(=O)NC4` [CIMSS] yielded a remaining activity at 10 µM [1] of 3.88%, a remaining activity at 10 µM [2] of 9.79% and a remaining activity at 10 µM [3] of 21.3%. The remaining activity at 10 µM [4] was 108%, the “extended Ca2+ release” value ([5]; 10 µM, first hour pi) was “significant reduction” and the “initial Ca2+ transient” value ([5]; 10 µM, first three minutes) was “did not block”. For the same compound, the mean calcium released ([5]; 3 minutes) was 38.88 and 30.45 and 39.3074 and 44.7233, the mean calcium released ([5]; 1 hour) was 90.67 and 95.94 and 99.48 and 102.73 and the remaining activity at 10 µM [6] was 9.56%. It also gave a remaining activity at 10 µM [7] of 22.3%, an IC50 ([8]; Supplementary Table 1, read-out: IC50 (Molar concentration)) of 3.64 nM and a remaining activity at 10 µM ([8]; read-out: % Enzyme Activity (relative to DMSO controls), 10µM) of 8.64%. For the same compound, the remaining activity at 10 µM [9] was 11.9%, the remaining activity at 10 µM [10] was 7.56% and the remaining activity at 10 µM [11] was 50.4%. The remaining activity at 10 µM [12] was 20.5%, the remaining activity at 10 µM [13] was 85.2% and the remaining activity at 10 µM [14] was 15.5%. For the same compound, the remaining activity at 10 µM [15] was 2.38%, the remaining activity at 10 µM [16] was 10.7% and the remaining activity at 10 µM [17] was 106%. It also gave a remaining activity at 10 µM [18] of 4.17%, a remaining activity at 10 µM [19] of 46.9% and a remaining activity at 10 µM [20] of 13.9%. For the same compound, the VSV-S infection [21] was “inhibited”, the remaining activity at 10 µM [22] was 18.4% and the remaining activity at 10 µM [23] was 12.4%. For the same compound, the remaining activity at 10 µM [24] was 1.66%, the remaining activity at 10 µM [25] was 38% and the remaining activity at 10 µM [26] was 6.48%. For the same compound, the remaining activity at 10 µM [27] was 28.7%, the remaining activity at 10 µM [28] was 19.8% and the remaining activity at 10 µM [29] was 10.2%. It also gave a remaining activity at 10 µM [30] of 22.6%, a remaining activity at 10 µM [31] of 98.2% and a remaining activity at 10 µM [32] of 37.9%. The remaining activity at 10 µM [33] was 19.6%, the remaining activity at 10 µM [34] was 14.2% and the remaining activity at 10 µM [35] was 99.1%. For the same compound, the remaining activity at 10 µM [36] was 81.7%, the remaining activity at 10 µM [37] was 16.6% and the remaining activity at 10 µM [38] was 4.66%.
